Legend:
Assay in all cases: biochemical
Type in all cases: biochemical
382 unique human kinases [1] = molecular target: T1, 382 unique human kinases (Homo sapiens, UniProt Q13188); conditions: kinase MST2/STK3, compound 10 uM; for remaining activity at 10 µM: read-out: % Enzyme Activity (relative to DMSO controls)
T1 construct: purchased Reaction Biology (HotSpot contract assay)
T1 sequence (Q13188 1-491): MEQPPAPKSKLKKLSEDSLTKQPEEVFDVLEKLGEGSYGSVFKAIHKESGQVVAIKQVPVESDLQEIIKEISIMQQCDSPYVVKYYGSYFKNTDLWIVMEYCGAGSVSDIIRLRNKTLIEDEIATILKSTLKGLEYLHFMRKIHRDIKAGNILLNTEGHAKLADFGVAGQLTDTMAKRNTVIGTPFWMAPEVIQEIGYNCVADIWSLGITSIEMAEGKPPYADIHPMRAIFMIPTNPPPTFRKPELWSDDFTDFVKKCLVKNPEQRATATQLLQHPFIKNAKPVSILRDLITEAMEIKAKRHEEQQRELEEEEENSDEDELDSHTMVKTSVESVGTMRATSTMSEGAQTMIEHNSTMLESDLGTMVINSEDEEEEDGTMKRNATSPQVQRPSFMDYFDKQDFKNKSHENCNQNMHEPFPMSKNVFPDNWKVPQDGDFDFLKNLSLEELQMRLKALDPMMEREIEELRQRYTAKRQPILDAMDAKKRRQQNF

382 unique human kinases [2] = molecular target: T2, 382 unique human kinases (Homo sapiens, UniProt Q13163); conditions: MEK5, 10 uM; for remaining activity at 10 µM: read-out: % Enzyme Activity (relative to DMSO controls)
T2 construct: purchased Reaction Biology (HotSpot contract assay)
T2 sequence (Q13163 1-448): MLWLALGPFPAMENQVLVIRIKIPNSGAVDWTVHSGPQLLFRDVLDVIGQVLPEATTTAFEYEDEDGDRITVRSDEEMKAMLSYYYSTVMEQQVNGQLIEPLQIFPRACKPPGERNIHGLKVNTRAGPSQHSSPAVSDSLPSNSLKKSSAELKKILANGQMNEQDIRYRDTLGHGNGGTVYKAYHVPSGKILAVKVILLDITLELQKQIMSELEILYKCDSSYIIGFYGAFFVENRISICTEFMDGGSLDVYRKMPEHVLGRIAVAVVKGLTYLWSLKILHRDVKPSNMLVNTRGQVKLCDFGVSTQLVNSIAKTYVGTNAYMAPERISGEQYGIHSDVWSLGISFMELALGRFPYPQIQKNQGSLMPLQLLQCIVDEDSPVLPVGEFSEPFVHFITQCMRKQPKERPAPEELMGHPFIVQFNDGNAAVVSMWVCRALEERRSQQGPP

382 unique human kinases [3] = molecular target: T3, 382 unique human kinases (Homo sapiens, UniProt O75385); conditions: ULK1, 10 uM; for remaining activity at 10 µM: read-out: % Enzyme Activity (relative to DMSO controls)
T3 construct: purchased Reaction Biology (HotSpot contract assay)
T3 sequence (O75385 1-1050): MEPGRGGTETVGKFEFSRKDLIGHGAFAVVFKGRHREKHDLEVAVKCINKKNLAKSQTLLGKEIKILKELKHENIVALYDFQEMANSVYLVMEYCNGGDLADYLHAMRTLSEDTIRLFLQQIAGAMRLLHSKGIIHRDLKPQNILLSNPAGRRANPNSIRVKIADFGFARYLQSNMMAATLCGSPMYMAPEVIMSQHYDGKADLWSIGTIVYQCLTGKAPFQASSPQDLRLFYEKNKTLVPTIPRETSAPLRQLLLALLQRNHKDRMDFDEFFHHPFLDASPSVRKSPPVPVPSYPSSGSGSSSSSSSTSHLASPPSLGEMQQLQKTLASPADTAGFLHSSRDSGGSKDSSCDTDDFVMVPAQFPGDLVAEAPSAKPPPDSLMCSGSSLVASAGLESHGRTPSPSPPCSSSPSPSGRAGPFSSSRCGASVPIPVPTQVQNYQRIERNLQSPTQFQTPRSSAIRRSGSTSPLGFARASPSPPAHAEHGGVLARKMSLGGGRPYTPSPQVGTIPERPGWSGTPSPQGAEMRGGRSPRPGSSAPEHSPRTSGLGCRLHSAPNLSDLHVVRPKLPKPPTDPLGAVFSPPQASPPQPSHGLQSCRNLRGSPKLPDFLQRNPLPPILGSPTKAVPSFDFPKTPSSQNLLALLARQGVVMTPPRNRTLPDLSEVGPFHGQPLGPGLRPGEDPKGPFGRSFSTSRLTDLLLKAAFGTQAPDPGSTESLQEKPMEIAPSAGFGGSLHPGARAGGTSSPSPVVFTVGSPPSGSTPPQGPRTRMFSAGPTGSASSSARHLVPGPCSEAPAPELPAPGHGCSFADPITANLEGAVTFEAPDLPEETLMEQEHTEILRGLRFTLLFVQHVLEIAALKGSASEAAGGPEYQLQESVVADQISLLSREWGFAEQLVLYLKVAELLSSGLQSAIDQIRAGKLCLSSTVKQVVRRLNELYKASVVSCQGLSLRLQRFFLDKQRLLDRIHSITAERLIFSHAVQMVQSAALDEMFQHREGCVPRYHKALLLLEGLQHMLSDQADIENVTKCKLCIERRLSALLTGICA

382 unique human kinases [4] = molecular target: T4, 382 unique human kinases (Homo sapiens, UniProt Q96NX5); conditions: kinase CAMK1g, compound 10 uM; for remaining activity at 10 µM: read-out: % Enzyme Activity (relative to DMSO controls)
T4 construct: purchased Reaction Biology (HotSpot contract assay)

382 unique human kinases [5] = molecular target: T5, 382 unique human kinases (Homo sapiens, UniProt P29317); conditions: EPHA2, [ATP] 50 µM, compound 10 uM; for remaining activity at 10 µM: read-out: % Enzyme Activity (relative to DMSO controls)
T5 construct: purchased Reaction Biology (HotSpot contract assay)

382 unique human kinases [6] = molecular target: T6, 382 unique human kinases (Homo sapiens, UniProt Q8N752); conditions: CK1a1L, 10 uM; for remaining activity at 10 µM: read-out: % Enzyme Activity (relative to DMSO controls)
T6 construct: purchased Reaction Biology (HotSpot contract assay)
T6 sequence (Q8N752 1-337): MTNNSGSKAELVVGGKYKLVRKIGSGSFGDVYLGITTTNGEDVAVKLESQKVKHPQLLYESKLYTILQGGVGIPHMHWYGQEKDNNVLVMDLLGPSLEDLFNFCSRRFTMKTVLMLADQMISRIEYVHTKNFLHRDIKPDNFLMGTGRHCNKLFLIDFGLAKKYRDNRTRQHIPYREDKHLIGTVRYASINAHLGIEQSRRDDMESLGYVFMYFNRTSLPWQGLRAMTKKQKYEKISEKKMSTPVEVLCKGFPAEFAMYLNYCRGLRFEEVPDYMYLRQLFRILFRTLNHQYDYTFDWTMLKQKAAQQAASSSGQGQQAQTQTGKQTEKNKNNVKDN

382 unique human kinases [7] = molecular target: T7, 382 unique human kinases (Homo sapiens, UniProt Q9H2X6); conditions: HIPK2, 10 uM; for remaining activity at 10 µM: read-out: % Enzyme Activity (relative to DMSO controls)
T7 construct: purchased Reaction Biology (HotSpot contract assay)

382 unique human kinases [8] = molecular target: T8, 382 unique human kinases (Homo sapiens, UniProt Q9Y243); conditions: AKT3, 10 uM; for remaining activity at 10 µM: read-out: % Enzyme Activity (relative to DMSO controls)
T8 construct: purchased Reaction Biology (HotSpot contract assay)
T8 sequence (Q9Y243 whole entry): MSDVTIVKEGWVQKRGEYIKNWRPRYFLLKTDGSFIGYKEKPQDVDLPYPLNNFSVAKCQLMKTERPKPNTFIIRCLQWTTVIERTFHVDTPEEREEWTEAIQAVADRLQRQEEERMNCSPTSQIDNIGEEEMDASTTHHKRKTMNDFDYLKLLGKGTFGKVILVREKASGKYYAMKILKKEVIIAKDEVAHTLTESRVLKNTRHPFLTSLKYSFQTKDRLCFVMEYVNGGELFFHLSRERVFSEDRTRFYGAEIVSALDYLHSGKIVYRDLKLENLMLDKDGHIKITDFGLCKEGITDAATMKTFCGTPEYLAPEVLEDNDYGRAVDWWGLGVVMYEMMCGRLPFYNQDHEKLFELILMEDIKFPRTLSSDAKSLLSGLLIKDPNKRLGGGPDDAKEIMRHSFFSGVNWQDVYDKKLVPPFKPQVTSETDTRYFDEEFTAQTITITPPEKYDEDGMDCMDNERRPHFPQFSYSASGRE

T4 sequence (Q96NX5 whole entry): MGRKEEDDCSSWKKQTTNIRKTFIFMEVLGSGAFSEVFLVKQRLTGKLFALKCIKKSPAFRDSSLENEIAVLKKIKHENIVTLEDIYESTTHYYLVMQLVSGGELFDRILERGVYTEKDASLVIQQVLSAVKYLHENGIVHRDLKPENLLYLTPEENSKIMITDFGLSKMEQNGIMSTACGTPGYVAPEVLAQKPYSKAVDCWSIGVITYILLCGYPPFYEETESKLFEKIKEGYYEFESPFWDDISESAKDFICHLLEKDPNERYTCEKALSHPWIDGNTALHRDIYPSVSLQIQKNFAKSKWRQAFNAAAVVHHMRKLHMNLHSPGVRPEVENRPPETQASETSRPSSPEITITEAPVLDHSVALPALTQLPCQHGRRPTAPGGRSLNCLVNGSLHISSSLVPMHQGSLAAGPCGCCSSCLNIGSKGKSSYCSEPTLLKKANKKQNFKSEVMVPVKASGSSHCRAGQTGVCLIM
T7 sequence (Q9H2X6 whole entry): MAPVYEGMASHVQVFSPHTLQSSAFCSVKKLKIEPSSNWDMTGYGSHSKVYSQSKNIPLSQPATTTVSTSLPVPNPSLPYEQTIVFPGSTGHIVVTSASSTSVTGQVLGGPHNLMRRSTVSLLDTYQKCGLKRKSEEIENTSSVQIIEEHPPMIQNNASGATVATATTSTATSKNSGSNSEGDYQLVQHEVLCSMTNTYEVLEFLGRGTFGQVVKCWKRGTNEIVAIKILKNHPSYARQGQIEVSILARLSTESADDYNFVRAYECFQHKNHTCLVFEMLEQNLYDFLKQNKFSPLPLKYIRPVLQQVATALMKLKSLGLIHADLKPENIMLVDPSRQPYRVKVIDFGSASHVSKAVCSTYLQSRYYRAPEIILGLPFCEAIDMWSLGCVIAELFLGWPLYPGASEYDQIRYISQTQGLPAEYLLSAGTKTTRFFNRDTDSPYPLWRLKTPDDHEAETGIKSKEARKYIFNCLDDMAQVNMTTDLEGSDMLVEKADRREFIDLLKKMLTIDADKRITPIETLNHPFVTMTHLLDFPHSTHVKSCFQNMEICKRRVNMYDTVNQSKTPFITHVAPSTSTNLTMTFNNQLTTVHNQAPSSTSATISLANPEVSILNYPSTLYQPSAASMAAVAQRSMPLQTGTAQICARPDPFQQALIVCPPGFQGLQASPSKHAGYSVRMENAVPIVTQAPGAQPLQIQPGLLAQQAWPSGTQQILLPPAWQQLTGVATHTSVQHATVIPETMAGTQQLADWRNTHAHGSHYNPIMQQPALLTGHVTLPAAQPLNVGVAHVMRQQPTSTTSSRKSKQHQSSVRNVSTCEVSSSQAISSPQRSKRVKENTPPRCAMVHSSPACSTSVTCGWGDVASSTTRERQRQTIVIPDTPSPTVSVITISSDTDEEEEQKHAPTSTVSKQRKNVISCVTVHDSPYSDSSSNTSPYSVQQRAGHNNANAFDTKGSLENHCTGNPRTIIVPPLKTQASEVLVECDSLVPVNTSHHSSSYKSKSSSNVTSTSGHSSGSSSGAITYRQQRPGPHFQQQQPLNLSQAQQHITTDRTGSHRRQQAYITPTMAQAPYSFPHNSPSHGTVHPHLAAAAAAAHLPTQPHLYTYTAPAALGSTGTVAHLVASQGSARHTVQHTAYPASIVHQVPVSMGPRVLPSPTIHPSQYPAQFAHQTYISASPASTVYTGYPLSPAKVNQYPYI
T5 sequence (P29317 24-976): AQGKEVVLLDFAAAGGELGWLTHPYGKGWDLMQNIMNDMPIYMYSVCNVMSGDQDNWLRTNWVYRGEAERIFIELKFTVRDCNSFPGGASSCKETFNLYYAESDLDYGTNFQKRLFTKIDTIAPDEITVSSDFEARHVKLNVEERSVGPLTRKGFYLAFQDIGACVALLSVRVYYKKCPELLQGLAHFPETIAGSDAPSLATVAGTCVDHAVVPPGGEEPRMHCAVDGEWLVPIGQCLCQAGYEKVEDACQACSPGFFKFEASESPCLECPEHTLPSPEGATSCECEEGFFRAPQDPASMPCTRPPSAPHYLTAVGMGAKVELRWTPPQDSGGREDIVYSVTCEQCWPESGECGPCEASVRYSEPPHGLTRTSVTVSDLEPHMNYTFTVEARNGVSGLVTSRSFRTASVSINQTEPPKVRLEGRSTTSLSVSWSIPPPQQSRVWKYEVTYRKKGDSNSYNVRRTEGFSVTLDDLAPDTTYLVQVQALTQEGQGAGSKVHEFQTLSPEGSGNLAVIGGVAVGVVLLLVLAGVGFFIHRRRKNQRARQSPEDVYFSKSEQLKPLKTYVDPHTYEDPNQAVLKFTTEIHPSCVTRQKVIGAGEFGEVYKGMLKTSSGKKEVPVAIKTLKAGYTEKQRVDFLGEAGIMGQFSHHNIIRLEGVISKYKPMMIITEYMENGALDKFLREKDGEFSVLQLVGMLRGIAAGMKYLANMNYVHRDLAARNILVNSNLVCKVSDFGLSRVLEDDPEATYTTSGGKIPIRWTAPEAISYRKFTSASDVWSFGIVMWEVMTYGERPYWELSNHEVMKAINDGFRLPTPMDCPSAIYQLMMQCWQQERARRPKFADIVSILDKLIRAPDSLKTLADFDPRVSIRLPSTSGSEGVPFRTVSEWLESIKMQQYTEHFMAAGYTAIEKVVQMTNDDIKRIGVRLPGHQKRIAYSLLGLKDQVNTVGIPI

CC(C)c1cc(-c2n[nH]c(=O)n2-c2ccc3c(ccn3C)c2)c(O)cc1O [Ganetespib (STA9090)]
remaining activity at 10 µM (382 unique human kinases [1]): 78.8%
remaining activity at 10 µM (382 unique human kinases [2]): 65.3%
remaining activity at 10 µM (382 unique human kinases [3]): 73%
remaining activity at 10 µM (382 unique human kinases [4]): 86.8%

CC(C)c1cc(-c2n[nH]c(=O)n2-c2ccc3c(ccn3C)c2)c(O)cc1O [Ganetespib]
remaining activity at 10 µM (382 unique human kinases [5]): 43.5%
remaining activity at 10 µM (382 unique human kinases [6]): 98.3%
remaining activity at 10 µM (382 unique human kinases [7]): 101%
remaining activity at 10 µM (382 unique human kinases [8]): 92.1%

CCNC(=O)c1noc(-c2cc(C(C)C)c(O)cc2O)c1-c1ccc(CN2CCOCC2)cc1 [Luminespib (AUY-922)]
% Enzyme Activity (relative to DMSO controls) (382 unique human kinases [1]): 89.89%
remaining activity at 10 µM (382 unique human kinases [1]): 93.3%
% Enzyme Activity (relative to DMSO controls) (382 unique human kinases [2]): 99.65%
remaining activity at 10 µM (382 unique human kinases [2]): 100%
% Enzyme Activity (relative to DMSO controls) (382 unique human kinases [3]): 102.69%
remaining activity at 10 µM (382 unique human kinases [3]): 104%
% Enzyme Activity (relative to DMSO controls) (382 unique human kinases [4]): 93.84%
remaining activity at 10 µM (382 unique human kinases [4]): 97.8%

CCNC(=O)c1noc(-c2cc(C(C)C)c(O)cc2O)c1-c1ccc(CN2CCOCC2)cc1 [Luminespib]
% Enzyme Activity (relative to DMSO controls) (382 unique human kinases [5]): 92.01%
remaining activity at 10 µM (382 unique human kinases [5]): 92.4%
% Enzyme Activity (relative to DMSO controls) (382 unique human kinases [6]): 99.86%
remaining activity at 10 µM (382 unique human kinases [6]): 100%
% Enzyme Activity (relative to DMSO controls) (382 unique human kinases [7]): 103.59%
remaining activity at 10 µM (382 unique human kinases [7]): 105%
% Enzyme Activity (relative to DMSO controls) (382 unique human kinases [8]): 99.02%
remaining activity at 10 µM (382 unique human kinases [8]): 100%

Reference: publication PMC8550792, “Evolution of kinase polypharmacology across HSP90 drug discovery” (Cell Chemical Biology, 2021)
